Results: ChEMBL document CHEMBL3259703, “Synthesis and preliminary biological evaluation of 1,2,3-triazole-Jaspine B hybrids as potential cytotoxic agents” (Eur J Med Chem, 2014)
Values belong to the compound of their own block, whether it stands above or below them.

Legend:
MGC-803 [1] = experiment: Antiproliferative activity against human MGC803 cells after 48 hrs by MTT assay; format: functional, cell-based; conditions: MGC-803, 48 h
MCF7 [2] = experiment: Antiproliferative activity against human MCF7 cells after 48 hrs by MTT assay; format: functional, cell-based; conditions: MCF7, 48 h
[3] = Antiproliferative activity against human EC9706 cells after 48 hrs by MTT assay; format: functional, cell-based; conditions: EC9706, 48 h
MCF7 [4] = experiment: Cell cycle arrest in human MCF7 cells assessed as accumulation at G0/G1 phase at 2 uM after 8 hrs using propidium iodide staining by flow cytometry (reference value: 47.36 %); format: functional
MCF7 [5] = experiment: Induction of apoptosis in human MCF7 cells assessed as late apoptotic cells at 8 uM after 16 hrs using Annexin V/PI double staining by flow cytometry (reference value: 0.7 %); format: functional
MCF7 [6] = experiment: Cell cycle arrest in human MCF7 cells assessed as accumulation at S phase at 2 uM after 16 hrs using propidium iodide staining by flow cytometry (reference value: 30.05 %); format: functional
MCF7 [7] = experiment: Ratio of IC50 Jaspine B to compound IC50 for human MCF7 cells after 48 hrs by MTT assay; format: functional
MCF7 [8] = experiment: Induction of apoptosis in human MCF7 cells assessed as early apoptotic cells at 4 uM after 16 hrs using Annexin V/PI double staining by flow cytometry (reference value: 11.1 %); format: functional
MCF7 [9] = experiment: Induction of apoptosis in human MCF7 cells assessed as late apoptotic cells at 2 uM after 8 hrs using Annexin V/PI double staining by flow cytometry (reference value: 6.8 %); format: functional
MCF7 [10] = experiment: Induction of apoptosis in human MCF7 cells assessed as viable cells at 8 uM after 8 hrs using Annexin V/PI double staining by flow cytometry (reference value: 84.3 %); format: functional; conditions: MCF7, 8 h, read-out: Activity
MCF7 [11] = experiment: Induction of apoptosis in human MCF7 cells assessed as viable cells at 2 uM after 16 hrs using Annexin V/PI double staining by flow cytometry (reference value: 87.5 %); format: functional; conditions: MCF7, 16 h, read-out: Activity
MCF7 [12] = experiment: Cell cycle arrest in human MCF7 cells assessed as accumulation at S phase at 4 uM after 8 hrs using propidium iodide staining by flow cytometry (reference value: 33.03 %); format: functional
MCF7 [13] = experiment: Induction of apoptosis in human MCF7 cells assessed as necrotic cells at 8 uM after 8 hrs using Annexin V/PI double staining by flow cytometry (reference value: 0.6 %); format: functional
MCF7 [14] = experiment: Cell cycle arrest in human MCF7 cells assessed as accumulation at G0/G1 phase at 2 uM after 16 hrs using propidium iodide staining by flow cytometry (reference value: 46.01 %); format: functional
MCF7 [15] = experiment: Cell cycle arrest in human MCF7 cells assessed as accumulation at G2/M phase at 2 uM after 16 hrs using propidium iodide staining by flow cytometry (reference value: 20.08 %); format: functional
MCF7 [16] = experiment: Induction of apoptosis in human MCF7 cells assessed as necrotic cells at 4 uM after 16 hrs using Annexin V/PI double staining by flow cytometry (reference value: 0.7 %); format: functional
MCF7 [17] = experiment: Cell cycle arrest in human MCF7 cells assessed as accumulation at G0/G1 phase at 4 uM after 16 hrs using propidium iodide staining by flow cytometry (reference value: 46.01 %); format: functional
MCF7 [18] = experiment: Induction of apoptosis in human MCF7 cells assessed as late apoptotic cells at 8 uM after 8 hrs using Annexin V/PI double staining by flow cytometry (reference value: 6.8 %); format: functional
MCF7 [19] = experiment: Induction of apoptosis in human MCF7 cells assessed as early apoptotic cells at 8 uM after 16 hrs using Annexin V/PI double staining by flow cytometry (reference value: 11.1 %); format: functional
MCF7 [20] = experiment: Cell cycle arrest in human MCF7 cells assessed as accumulation at G2/M phase at 8 uM after 8 hrs using propidium iodide staining by flow cytometry (reference value: 19.35 %); format: functional
[21] = Ratio of IC50 Jaspine B to compound IC50 for human EC9706 cells after 48 hrs by MTT assay; format: functional
MCF7 [22] = experiment: Induction of apoptosis in human MCF7 cells assessed as late apoptotic cells at 2 uM after 16 hrs using Annexin V/PI double staining by flow cytometry (reference value: 0.7 %); format: functional
MCF7 [23] = experiment: Induction of apoptosis in human MCF7 cells assessed as viable cells at 2 uM after 8 hrs using Annexin V/PI double staining by flow cytometry (reference value: 84.3 %); format: functional; conditions: MCF7, 8 h, read-out: Activity
MCF7 [24] = experiment: Induction of apoptosis in human MCF7 cells assessed as necrotic cells at 8 uM after 16 hrs using Annexin V/PI double staining by flow cytometry (reference value: 0.7 %); format: functional
MCF7 [25] = experiment: Induction of apoptosis in human MCF7 cells assessed as early apoptotic cells at 8 uM after 8 hrs using Annexin V/PI double staining by flow cytometry (reference value: 8.2 %); format: functional
MCF7 [26] = experiment: Cell cycle arrest in human MCF7 cells assessed as accumulation at S phase at 8 uM after 8 hrs using propidium iodide staining by flow cytometry (reference value: 33.03 %); format: functional
MCF7 [27] = experiment: Cell cycle arrest in human MCF7 cells assessed as accumulation at G2/M phase at 8 uM after 16 hrs using propidium iodide staining by flow cytometry (reference value: 20.08 %); format: functional
MCF7 [28] = experiment: Induction of apoptosis in human MCF7 cells assessed as necrotic cells at 4 uM after 8 hrs using Annexin V/PI double staining by flow cytometry (reference value: 0.6 %); format: functional
MCF7 [29] = experiment: Cell cycle arrest in human MCF7 cells assessed as accumulation at G0/G1 phase at 8 uM after 8 hrs using propidium iodide staining by flow cytometry (reference value: 47.36 %); format: functional
MCF7 [30] = experiment: Cell cycle arrest in human MCF7 cells assessed as accumulation at G2/M phase at 4 uM after 16 hrs using propidium iodide staining by flow cytometry (reference value: 20.08 %); format: functional
MCF7 [31] = experiment: Induction of apoptosis in human MCF7 cells assessed as necrotic cells at 2 uM after 8 hrs using Annexin V/PI double staining by flow cytometry (reference value: 0.6 %); format: functional
MCF7 [32] = experiment: Induction of apoptosis in human MCF7 cells assessed as late apoptotic cells at 4 uM after 16 hrs using Annexin V/PI double staining by flow cytometry (reference value: 0.7 %); format: functional
MCF7 [33] = experiment: Cell cycle arrest in human MCF7 cells assessed as accumulation at G0/G1 phase at 4 uM after 8 hrs using propidium iodide staining by flow cytometry (reference value: 47.36 %); format: functional
MCF7 [34] = experiment: Cell cycle arrest in human MCF7 cells assessed as accumulation at S phase at 4 uM after 16 hrs using propidium iodide staining by flow cytometry (reference value: 30.05 %); format: functional
MCF7 [35] = experiment: Cell cycle arrest in human MCF7 cells assessed as accumulation at G0/G1 phase at 8 uM after 16 hrs using propidium iodide staining by flow cytometry (reference value: 46.01 %); format: functional
MCF7 [36] = experiment: Cell cycle arrest in human MCF7 cells assessed as accumulation at S phase at 2 uM after 8 hrs using propidium iodide staining by flow cytometry (reference value: 33.03 %); format: functional
MCF7 [37] = experiment: Cell cycle arrest in human MCF7 cells assessed as accumulation at S phase at 8 uM after 16 hrs using propidium iodide staining by flow cytometry (reference value: 30.05 %); format: functional
MCF7 [38] = experiment: Induction of apoptosis in human MCF7 cells assessed as viable cells at 4 uM after 16 hrs using Annexin V/PI double staining by flow cytometry (reference value: 87.5 %); format: functional; conditions: MCF7, 16 h, read-out: Activity
MCF7 [39] = experiment: Induction of apoptosis in human MCF7 cells assessed as viable cells at 8 uM after 16 hrs using Annexin V/PI double staining by flow cytometry (reference value: 87.5 %); format: functional; conditions: MCF7, 16 h, read-out: Activity
MCF7 [40] = experiment: Cell cycle arrest in human MCF7 cells assessed as accumulation at G2/M phase at 4 uM after 8 hrs using propidium iodide staining by flow cytometry (reference value: 19.35 %); format: functional
MCF7 [41] = experiment: Induction of apoptosis in human MCF7 cells assessed as early apoptotic cells at 2 uM after 8 hrs using Annexin V/PI double staining by flow cytometry (reference value: 8.2 %); format: functional
MCF7 [42] = experiment: Induction of apoptosis in human MCF7 cells assessed as early apoptotic cells at 4 uM after 8 hrs using Annexin V/PI double staining by flow cytometry (reference value: 8.2 %); format: functional
MGC-803 [43] = experiment: Ratio of IC50 Jaspine B to compound IC50 for human MGC803 cells after 48 hrs by MTT assay; format: functional
MCF7 [44] = experiment: Induction of apoptosis in human MCF7 cells assessed as early apoptotic cells at 2 uM after 16 hrs using Annexin V/PI double staining by flow cytometry (reference value: 11.1 %); format: functional
MCF7 [45] = experiment: Induction of apoptosis in human MCF7 cells assessed as late apoptotic cells at 4 uM after 8 hrs using Annexin V/PI double staining by flow cytometry (reference value: 6.8 %); format: functional
MCF7 [46] = experiment: Cell cycle arrest in human MCF7 cells assessed as accumulation at G2/M phase at 2 uM after 8 hrs using propidium iodide staining by flow cytometry (reference value: 19.35 %); format: functional
MCF7 [47] = experiment: Induction of apoptosis in human MCF7 cells assessed as necrotic cells at 2 uM after 16 hrs using Annexin V/PI double staining by flow cytometry (reference value: 0.7 %); format: functional
MCF7 [48] = experiment: Induction of apoptosis in human MCF7 cells assessed as viable cells at 4 uM after 8 hrs using Annexin V/PI double staining by flow cytometry (reference value: 84.3 %); format: functional; conditions: MCF7, 8 h, read-out: Activity

Compound: CCCCCCCCCn1cc(COC[C@@H]2OC[C@H](N)[C@H]2O)nn1
- IC50 (MGC-803 [1]): > 128 µM
- IC50 (MCF7 [2]): > 128 µM
- IC50 [3]: > 128 µM

Compound: CCCCCCCn1cc(COC[C@@H]2OC[C@H](N)[C@@H]2O)nn1
- IC50 (MGC-803 [1]): > 128 µM
- IC50 (MCF7 [2]): > 128 µM
- IC50 [3]: > 128 µM

Compound: CCCCCCCCn1cc(COC[C@@H]2OC[C@H](N)[C@H]2O)nn1
- IC50 (MGC-803 [1]): > 128 µM
- IC50 (MCF7 [2]): > 128 µM
- IC50 [3]: > 128 µM

Compound: CCCCCCCn1cc(COC[C@@H]2OC[C@H](N)[C@H]2O)nn1
- IC50 (MGC-803 [1]): > 128 µM
- IC50 (MCF7 [2]): > 128 µM
- IC50 [3]: > 128 µM

Continued, in another order:

- IC50 (MGC-803 [1]): 57.4 µM
- IC50 (MCF7 [2]): 45 µM
Compound: CCCCCCCCCCn1cc(COC[C@@H]2OC[C@H](N)[C@H]2O)nn1
- IC50 [3]: 43.1 µM

- IC50 (MGC-803 [1]): 5.1 µM
- IC50 (MCF7 [2]): 4.84 µM
Compound: CCCCCCCCCCCCCC[C@@H]1OC[C@H](N)[C@@H]1O [PACHASTRISSAMINE]
- IC50 [3]: 6.12 µM

- IC50 (MGC-803 [1]): 21.4 µM
- IC50 (MCF7 [2]): 2.21 µM
Compound: CCCCCCCCCCCCn1cc(COC[C@@H]2OC[C@H](N)[C@@H]2O)nn1
- IC50 [3]: 16 µM

- IC50 (MGC-803 [1]): 5.34 µM
- IC50 (MCF7 [2]): 2.26 µM
Compound: CCCCCCCCCCCCCCCCn1cc(COC[C@@H]2OC[C@H](N)[C@H]2O)nn1
- IC50 [3]: 6.31 µM

- IC50 (MGC-803 [1]): 3.11 µM
- IC50 (MCF7 [2]): 1.93 µM
Compound: CCCCCCCCCCCCCCCCCCn1cc(COC[C@@H]2OC[C@H](N)[C@H]2O)nn1
- Activity (MCF7 [4]): 42.27%
- Activity (MCF7 [5]): 12.5%
- Activity (MCF7 [6]): 20.04%
- Ratio IC50 (MCF7 [7]): 2
- Activity (MCF7 [8]): 45%
- Activity (MCF7 [9]): 5.9%
- viability at 8 µM (MCF7 [10]): 56.3%
- viability at 2 µM (MCF7 [11]): 58.5%
- Activity (MCF7 [12]): 28.66%
- Activity (MCF7 [13]): 1.4%
- Activity (MCF7 [14]): 48.63%
- Activity (MCF7 [15]): 28.6%
- Activity (MCF7 [16]): 5.2%
- Activity (MCF7 [17]): 42.05%
- Activity (MCF7 [18]): 18.6%
- Activity (MCF7 [19]): 57.9%
- Activity (MCF7 [20]): 39.13%
- Ratio IC50 [21]: 2
- Activity (MCF7 [22]): 5.1%
- viability at 2 µM (MCF7 [23]): 81%
- Activity (MCF7 [24]): 5.5%
- Activity (MCF7 [25]): 23.8%
- Activity (MCF7 [26]): 36.69%
- Activity (MCF7 [27]): 47.4%
- Activity (MCF7 [28]): 0.5%
- Activity (MCF7 [29]): 19.11%
- Activity (MCF7 [30]): 36.4%
- Activity (MCF7 [31]): 1.2%
- Activity (MCF7 [32]): 11.6%
- Activity (MCF7 [33]): 33.13%
- Activity (MCF7 [34]): 17.16%
- Activity (MCF7 [35]): 25.7%
- Activity (MCF7 [36]): 29.66%
- Activity (MCF7 [37]): 23.53%
- viability at 4 µM (MCF7 [38]): 38.2%
- viability at 8 µM (MCF7 [39]): 24%
- Activity (MCF7 [40]): 30.72%
- Activity (MCF7 [41]): 12%
- Activity (MCF7 [42]): 13.9%
- Ratio IC50 (MGC-803 [43]): 2
- Activity (MCF7 [44]): 31.4%
- IC50 [3]: 2.29 µM
- Activity (MCF7 [45]): 14.1%
- Activity (MCF7 [46]): 27.97%
- Activity (MCF7 [47]): 4.9%
- viability at 4 µM (MCF7 [48]): 71.5%
